In patent publication US10391148B2, “Method of prevention and inhibition of preterm labor” (Wayne State University, priority 2016, dated 2019):

Assays:
Type in all cases: in vivo, mouse
[1] = test system: pregnant female μMT mice (LPS-induced PTL); experiment: LPS-induced preterm labor in pregnant μMT mice: preterm delivery and neonatal/fetal mortality; details: read on gd 17.5, fPIBF1 1 μg (800 ng in method), cPIBF1 300 ng, vs PBS
Description: (§1) Six to ten-week old virgin female C57BL/6 (WT) or μMT mice were mated with male Balb/c mice. Female mice were examined daily in the early morning for the presence of a vaginal plug, which denoted gestational day (gd) 0.5. In the late morning of gd 16.5, pregnant female mice were intraperitoneally administered with 200 μl sterile PBS or 200 μl sterile PBS containing 0.5, 2.5, 5, 10 or 20 μg lipopolysaccharides (LPS) from Salmonella enterica serotype typhimurium (Sigma-Aldrich L6143). The various doses of LPS were given to the mice randomly. In some experiments, splenic B cells of 5 to 8-week old virgin female WT or IL-10−/− mice were purified using a mouse resting B cell negative isolation kit (Miltenyi Biotec 130-090-862) to 94% to 99% purity as determined by CD19 staining. 107 purified B cells were adoptively transferred in 200 μl sterile PBS into pregnant female μMT mice on gd 14.5 prior to LPS administration on gd 16.5. In some other experiments, 200 μl sterile PBS or 200 μl sterile PBS containing 800 ng recombinant full-length PIBF1 (fPIBF1) (aa 1-757 (SEQ ID NO:11, with an N-terminal glutathione-S-transferase (GST) tag of 232 amino acids, Abnova H00010464-P01) or 300 ng of a recombinant C-terminal fragment of PIBF1 (cPIBF1) (aa 660-755 (SEQ ID NO:12), with an N-terminal glutathione-S-transferase (GST) tag of 232 amino acids, Abnova H00010464-Q01) was intravenously administered to pregnant female μMT mice on gd 16.5 three hours prior to intraperitoneal LPS administration. 24 hours after LPS administration, female mice were examined for delivery and death of delivered pups if delivery occurred. They were then sacrificed for the examination of neonatal/fetal mortality, which was calculated as the total number of dead delivered pups and dead fetuses divided by the total number of implantation sites. Uteri were collected, briefly washed in PBS and processed for RNA and protein extraction or flow cytometry. The people performing the analysis were not blinded to the genotype or treatment of the mice.
The sample size was calculated based on the effect size derived from preliminary data at 5% significance level and 80% power using the software G*Power 3.1. Sample availability exceeded the estimated sample size. Results are expressed as mean±S.E.M. Percentage data were subjected to square root transformation prior to statistical analysis to verify test assumptions of equal variance. Statistical difference in the rate of PTL between different strains of mice or different treatment groups was assessed by Fisher's exact test. Statistical difference in neonatal/fetal mortality was assessed by Mann-Whitney U test. For flow cytometry and qRT-PCR data, Shapiro-Wilk test was used to determine the normality of the data. Statistical significance was assessed by Student's t-test for normally distributed data and Mann-Whitney U test for non-normally distributed data. p values <0.05 were considered statistically significant.

[2] = test system: uterine proinflammatory mediators (Tnf, Il6, Mmp9, Cxcl2, Cxcl3, Cxcl5, Il1b, Cxcl10, Ccl3, Cxcl1, Ccl2, Cxcl9 transcripts); experiment: qRT-PCR of proinflammatory mediator transcripts in uterine tissues of LPS-challenged μMT mice; details: 24 hours after intravenous fPIBF1 and 5 μg intraperitoneal LPS, fold change of transcripts
Description: Six to ten-week old virgin female C57BL/6 (WT) or μMT mice were mated with male Balb/c mice. Female mice were examined daily in the early morning for the presence of a vaginal plug, which denoted gestational day (gd) 0.5. In the late morning of gd 16.5, pregnant female mice were intraperitoneally administered with 200 μl sterile PBS or 200 μl sterile PBS containing 0.5, 2.5, 5, 10 or 20 μg lipopolysaccharides (LPS) from Salmonella enterica serotype typhimurium (Sigma-Aldrich L6143). The various doses of LPS were given to the mice randomly. In some experiments, splenic B cells of 5 to 8-week old virgin female WT or IL-10−/− mice were purified using a mouse resting B cell negative isolation kit (Miltenyi Biotec 130-090-862) to 94% to 99% purity as determined by CD19 staining. 107 purified B cells were adoptively transferred in 200 μl sterile PBS into pregnant female μMT mice on gd 14.5 prior to LPS administration on gd 16.5. […] They were then sacrificed for the examination of neonatal/fetal mortality, which was calculated as the total number of dead delivered pups and dead fetuses divided by the total number of implantation sites. […]

[3] = test system: CD11b+Ly-6G+ neutrophils in uterine tissues; experiment: Flow cytometry of uterine neutrophils of LPS-challenged μMT mice; details: vs PBS; for uterine neutrophil activation (CD11b, CD18, iNOS, ICAM-1, MHC-II, CD62L expression): μMT mice 24 hours after intravenous protein and intraperitoneal LPS
Description: as §1, with “Uteri were collected, briefly washed in PBS and processed for RNA and protein extraction or flow cytometry. The people performing the analysis were not blinded to the genotype or treatment of the mice.” left out
Cells were incubated with an Fc blocking reagent and stained at 4° C. with antibodies to various cell surface antigens (Tables 4, 5). […] Events were acquired on an LSR II cytometer (BD Biosciences) and analyzed by FlowJo (Tree Star). […]

fPIBF1: recombinant full-length PIBF1, aa 1-757, SEQ ID NO:11, N-terminal GST tag of 232 amino acids, Abnova H00010464-P01
neonatal/fetal mortality ([1]; protein intravenous on gd 16.5 before 5 μg intraperitoneal LPS): significantly reduced
rate of preterm delivery (PTL) ([1]; protein intravenous on gd 16.5 three hours before 5 μg intraperitoneal LPS): significantly reduced
uterine induction of proinflammatory mediators (uterine inflammation) [2]: suppressed
uterine induction of proinflammatory mediators (uterine inflammation) ([2]; listed as full-length PIBF1): reduces
neutrophil infiltration into the uterus (frequency of CD11b+Ly-6G+ neutrophils in CD45+ cells) ([3]; gd 17.5 μMT mice after intravenous protein and intraperitoneal LPS on gd 16.5): inhibited
uterine neutrophil activation (CD11b, CD18, iNOS, ICAM-1, MHC-II, CD62L expression) [3]: reduced activation
uterine neutrophil activation (CD11b, CD18, iNOS, ICAM-1, MHC-II, CD62L expression) ([3]; listed as full-length PIBF1): reduces
